# Reference: patent US20140349948A1, “Treatment of Chronic Constipation” (Forest Laboratories Holdings Limited, priority 2009, published 2014)
# Marks after values point to notes of the source that are not given here. Residues, ends and D or L forms follow the SMILES beside them.
# Test system: patients meeting modified Rome II criteria for chronic constipation
# Assay: Chronic Constipation Trial 1, 12-week treatment period
# Type: in vivo, human
# Settings: for Straining, Week 1 Mean Change from Baseline / Abdominal discomfort, Week 1 Mean Change from Baseline / Bloating, Week 1 Mean Change from Baseline / Constipation severity, Week 1 Mean Change from Baseline: 5-point scale: 1 = none; for Straining, Week 1 Mean Change from Baseline: 5 = an extreme amount; for Abdominal discomfort, Week 1 Mean Change from Baseline / Bloating, Week 1 Mean Change from Baseline / Constipation severity, Week 1 Mean Change from Baseline: 5 = very severe; for Stool Consistency, Week 1 Mean Change from Baseline: 7-point scale (BSFS)
# Procedure: Linaclotide Capsules from Example 4 were administered in multicenter, randomized, double-blind, placebo-controlled trials.
# Trial 1 was conducted in 630 patients meeting modified Rome II criteria for chronic constipation. The trial included a two-week pretreatment baseline period and a 12-week treatment period. A diagram of the study design for Trial 2 is given in FIG. 1, which is substantially similar to Trial 1 except for the addition of a Randomized Withdrawal period in Trial 2 as described below.
# The Pretreatment Period is defined as the 14 to 21 calendar days immediately before starting the trial during which where patients provided information related to their daily bowel habits, daily assessment of the symptom severity, constipation severity, and use of other medicines, laxatives, suppositories, and/or enemas. Patients who satisfy the necessary criteria were entered into the Treatment Period. During the two-week pretreatment period, 72 percent of patients in Trial 1 had no CSBMs. A CSBM is an bowel movement that occurs in the absence of laxative, enema, or suppository usage within the preceding 24 hours that is accompanied by the patient self-reporting a feeling of complete emptying of the bowel.
# The Treatment Period began with randomization and lasted for 12 weeks. Patients were randomized to treatment with 133 μg linaclotide, 266 μg linaclotide, or placebo (1:1:1), taken once daily in the morning. Patients continued to provide their daily assessments such as their daily bowel habit assessments and daily patient symptom severity assessments.
# [1] = Trial 1, 133 μg (p≦0.0001) and 266 μg (p≦0.0001)
# [2] = Trial 1, 133 μg (p≦0.001) and 266 μg (p≦0.0001)
compound,measurement,setting,value
"C[C@@H]1NC(=O)[C@@H]2CCCN2C(=O)[C@H](CC(N)=O)NC(=O)[C@@H]2CSSC[C@H](N)C(=O)N[C@H]3CSSC[C@H](NC1=O)C(=O)N[C@@H]([C@@H](C)O)C(=O)NCC(=O)N[C@H](C(=O)N[C@@H](Cc1ccc(O)cc1)C(=O)O)CSSC[C@H](NC(=O)[C@H](Cc1ccc(O)cc1)NC(=O)[C@H](CCC(=O)O)NC3=O)C(=O)N2 [Linaclotide, Cys1 Cys2 Glu3 Tyr4 Cys5 Cys6 Asn7 Pro8 Ala9 Cys10 Thr11 Gly12 Cys13 Tyr14] (HELM PEPTIDE1{C.C.E.Y.C.C.N.P.A.C.T.G.C.Y}$PEPTIDE1,PEPTIDE1,1:R3-6:R3|PEPTIDE1,PEPTIDE1,2:R3-10:R3|PEPTIDE1,PEPTIDE1,5:R3-13:R3$$$V2.0)","CSBM rate, Week 1 Mean Change from Baseline","133 μg, Trial 1 (n = 213)",1.94***
same,"SBM rate, Week 1 Mean Change from Baseline","133 μg, Trial 1 (n = 213)",4.09***
same,"Straining, Week 1 Mean Change from Baseline","133 μg, Trial 1 (n = 213)",−1.04***
same,"Abdominal discomfort, Week 1 Mean Change from Baseline","133 μg, Trial 1 (n = 213)",−0.27**
same,"Bloating, Week 1 Mean Change from Baseline","133 μg, Trial 1 (n = 213)",−0.31*
same,"Constipation severity, Week 1 Mean Change from Baseline","133 μg, Trial 1 (n = 213)",−0.78***
same,"Stool Consistency, Week 1 Mean Change from Baseline","133 μg, Trial 1 (n = 213)",1.79***
same,"CSBM rate, Week 1 Mean Change from Baseline","266 μg, Trial 1 (n = 202)",2.63***
same,"SBM rate, Week 1 Mean Change from Baseline","266 μg, Trial 1 (n = 202)",4.09***
same,"Straining, Week 1 Mean Change from Baseline","266 μg, Trial 1 (n = 202)",−1.10***
same,"Abdominal discomfort, Week 1 Mean Change from Baseline","266 μg, Trial 1 (n = 202)",−0.28***
same,"Bloating, Week 1 Mean Change from Baseline","266 μg, Trial 1 (n = 202)",−0.36***
same,"Constipation severity, Week 1 Mean Change from Baseline","266 μg, Trial 1 (n = 202)",−0.81***
same,"Stool Consistency, Week 1 Mean Change from Baseline","266 μg, Trial 1 (n = 202)",1.96***
same,12-week CSBM overall responder rate,"Trial 1, 133 μg",16.0%
same,increase in average weekly CSBMs from baseline,"Trial 1, 133 μg",2.0
same,increase in average weekly SBMs from baseline,"Trial 1, 133 μg",3.4
same,numerical increase of 12-week CSBM overall responder rate as compared to placebo,"Trial 1, 133 μg",2.6 fold
same,patients reporting at least one CSBM within 24 hours of treatment,"Trial 1, 133 μg",28.2%
same,patients reporting at least one SBM within 24 hours of treatment,"Trial 1, 133 μg",64.3%
same,patients with increase of ≧1 from baseline in weekly CSBMs in at least nine out of 12 weeks,"Trial 1, 133 μg",31.0%
same,patients with increase of ≧1 from baseline in weekly CSBMs in at least six out of 12 weeks,"Trial 1, 133 μg",47.4%
same,patients with ≧3 weekly CSBMs in at least nine out of 12 weeks,"Trial 1, 133 μg",16.0%
same,12-week CSBM overall responder rate,"Trial 1, 266 μg",21.3%
same,increase in average weekly CSBMs from baseline,"Trial 1, 266 μg",2.7
same,increase in average weekly SBMs from baseline,"Trial 1, 266 μg",3.7
same,numerical increase of 12-week CSBM overall responder rate as compared to placebo,"Trial 1, 266 μg",3.5 fold
same,patients reporting at least one CSBM within 24 hours of treatment,"Trial 1, 266 μg",29.7%
same,patients reporting at least one SBM within 24 hours of treatment,"Trial 1, 266 μg",60.4%
same,patients with increase of ≧1 from baseline in weekly CSBMs in at least nine out of 12 weeks,"Trial 1, 266 μg",40.1%
same,patients with increase of ≧1 from baseline in weekly CSBMs in at least six out of 12 weeks,"Trial 1, 266 μg",51.0%
same,patients with ≧3 weekly CSBMs in at least nine out of 12 weeks,"Trial 1, 266 μg",21.8%
same,"PAC-QOL overall assessments, 12 week overall mean change versus placebo",[1],statistically significant improvements
same,PAC-QOL subscale score Physical Discomfort versus placebo,[1],statistically significant improvements
same,PAC-QOL subscale score Satisfaction versus placebo,[1],statistically significant improvements
same,PAC-QOL subscale score Worries/Concerns versus placebo,[1],statistically significant improvements
same,"severity of straining score, 12 week overall mean change versus placebo",[1],statistically significant improvements
same,"stool consistency score, 12 week overall mean change versus placebo",[1],statistically significant improvements
same,"abdominal discomfort score, 12 week overall mean change versus placebo",[2],statistically significant improvements
same,"bloating score, 12 week overall mean change versus placebo",[2],statistically significant improvements
same,"constipation severity score, 12 week overall mean change versus placebo",[2],statistically significant improvements
